In patent US20040122096A1, “Use of inhibitors of the cellular Na+/H+ exchanger (NHE) for preparing a medicament for normalizing serum lipids” (Hoechst Aktiengesellschaft, priority 1996, published 2004):

Tested on: male New Zealand white rabbits
Assay: Serum total cholesterol and lipoprotein fractions in rabbits after 30 days feeding
Type: in vivo, rabbit
Details: mean ± SEM
Source text: This antihyperlipidemic action is shown for an NHE inhibitor, 4-isopropyl-3-methylsulfonylbenzoylguanidine methanesulfonate (Hoe 642), in the following table, male New Zealand white rabbits (n=28) having a weight of 3-4 kg being used and divided into four groups of 7 animals in each case randomized as described below: 1) standard rabbit feed (®Altromin 2834), 2) atherogenic diet having a content of 0.25% cholesterol and 3% coconut oil, 3) standard rabbit feed+Hoe 642 (0.1%), 4) atherogenic diet+Hoe 642 (0.1%). Blood samples were taken once after 30 days feeding by puncture of the auricular artery. Serum was obtained from the blood. The total cholesterol was measured from the serum by means of the CHOD (cholesterol oxidase)-PAP method (Merckotest, Merck Diagnostics, E. Merck, 64271 Darmstadt, Germany). The separation of the lipoproteins was carried out, likewise from the serum, by FPLC (fast protein liquid chromatography) method (März et al. 1993, Clin. Chem. 39/11:2276-2281).

[1] = atherogenic diet (0.25% cholesterol, 3% coconut oil) + Hoe 642 0.1%
[2] = normal diet (standard rabbit feed) + Hoe 642 0.1%

CC(C)c1ccc(C(=O)NC(=N)N)cc1S(C)(=O)=O [HOE 642, 4-isopropyl-3-methylsulfonylbenzoylguanidine methanesulfonate]
LDL (serum cholesterol fraction) [1]: 2.1 ± 0.2 mmol/L
Total cholesterol (serum) [1]: 7.95 ± 0.89 mmol/L
VLDL (serum cholesterol fraction) [1]: 4.6 ± 0.6 mmol/L
LDL (serum cholesterol fraction) [2]: 0.23 ± 0.04 mmol/L
Total cholesterol (serum) [2]: 0.69 ± 0.1 mmol/L
VLDL (serum cholesterol fraction) [2]: 0.05 ± 0.02 mmol/L
